Measured values: patent EP0332387B1, “Triazole derivatives, their preparation and their use as fungicides” (Sankyo Company Limited, priority 1988, dated 1989)

Columns and labels:
Assay type in all cases: in vivo
Puccinia recondita = test: Curative activity against leaf rust of wheat (Experiment 6); details: wheat seedlings (variety Norin No 61), sprayed after inoculation at 3 ppm (30 ml/3 pots), 10 days; diseased area on the first leaf
Description: Wheat seedlings (variety Norin No 61) at the first leaf stage were inoculated with the fungus, Puccinia recondita, by spraying them with a spore suspension of the fungus. They were then kept in a moist chamber for 24 hours at 20 - 22 °C, after which they were moved to a greenhouse at 15 - 20 °C. […] The seedlings were then continuously kept in the greenhouse for 10 days. The disease controlling index was given on the basis of diseased area on the first leaf.

Pyricularia oryzae = details: rice seedlings (variety Sachikaze), sprayed 24 hours after inoculation at 10 ppm (30 ml/3 pots), further 6 days; number of lesions on the upper two leaves
Rhizoctonia solani [1] = test: Preventive activity against sheath blight of rice plants (Experiment 2); parameters: key: 0 = disease as untreated, 5 = no disease (complete control); details: rice seedlings (variety Nihonbare), sprayed at 100 ppm (30 ml/3 pots) 24 hours before inoculation, 5 days; height of the lesions
Description: Rice seedlings (variety Nihonbare) at the 4 - 5 leaf stage were sprayed with an aqueous suspension of the test compound at a concentration of 100 ppm (30 ml/3 pots). The seedlings were then kept for 24 hours at room temperature, after which they were inoculated with the fungus, Rhizoctonia solani, by placing 4 - 5 oat grains on which the fungus had previously been cultured around the base of each seedling. The seedlings were then kept in a moist chamber for 5 days at 25 - 27 °C. The disease controlling index was given on the basis of the height of the lesions formed on the rice seedlings.
Except in Table 12G, the compounds tested have the formula (1-1), in which Ar represents the group shown at the beginning of each part of the Table and R^1, R^2, X and Y are as defined in the Table.
(§1) The disease controlling index shown in the foregoing Tables 11 to 19 is indicated by the following codes: • 5--no disease (complete control) • 4--disease rate is less than 10% of the untreated plant • 3--disease rate is 10% - 30% of the untreated plant • 2--disease rate is 30% - 50% of the untreated plant • 1--disease rate is 50% - 70% of the untreated plant • 0--disease rate is almost same as the untreated plant.

Gibberella Fujikuroi = test: Activity against bakanae disease of rice plants by seed soaking (Experiment 5); parameters: key: 0 = disease as untreated, 5 = no disease (complete control); details: infected rice seeds (variety Tanginbozu) immersed 3 days in aqueous suspension (concentration not given), 3 weeks; number of diseased seedlings
Description: Ten grams of rice seeds (variety Tanginbozu), infected with Gibberella Fujikuroi, were immersed in 20 ml of an aqueous suspension of the test compound for 3 days. At the end of this time, the treated seeds were densely sown in soil in pots, and the pots were placed in a greenhouse at 20 - 30 °C for 3 weeks. The disease controlling index was given on the basis of the number of diseased seedlings.
(§2) The compounds tested have the formula (1-1), in which Ar represents the group shown at the beginning of each part of the Table and R^1, R^2, X and Y are as defined in the Table.
as §1

[2] = system: Erysiphe graminis f.sp. hordei; test: Curative activity against powdery mildew of barley (Experiment 7); details: barley seedlings (variety Sekishinriki), sprayed one day after inoculation at 3 ppm (30 ml/3 pots), further 10 days; diseased area on the first leaf
Description: Barley seedlings (variety […]) at the first leaf stage were inoculated with conidia of Erysiphe graminis f.sp. hordei and kept in a greenhouse at 15 - 20°C. After one day, the seedlings were sprayed with an aqueous suspension of the test compound at a concentration of 3 ppm (30 ml/3 pots), and they continued to be kept in the greenhouse at that temperature for a further 10 days. The disease controlling index was given on the basis of the diseased area on the first leaf.

Candida albicans = test: ED50 in mice infected with Candida albicans, oral treatment (Experiment 11); details: 360 h, treated orally, fifteen days after infection
Description: Groups of mice (each group contained 10 mice) were inoculated with 7 to 9 x 10^6 spores per mouse of Candida albicans. 1, 4, and 24 hours after the inoculation, each mouse was orally administered 20 mg/kg of the test compound each time. The anti-fungal activity was assessed by the survival rate 9 days after infection. The survival rate was recorded as 0% 2 days after infection in an untreated (control) group. […] Following essentially the same procedure as that described in Experiment 10, mice were infected with Candida albicans, and treated orally with various compounds of the invention, as shown in the following Table 21. Fifteen days after infection (or fourteen days in the case of the compounds of Example Nos. 5 and 10), ED50 values were determined and are reported in the following Table 21.

Sphaerotheca fuliginea = test: Preventive activity against powdery mildew of cucumber (Experiment 8); details: cucumber seedlings sprayed at 300 ppm, inoculated after 24 hours, evaluated after 7 days in greenhouse; diseased area on third and fourth leaves
Description: Cucumber seedlings (variety Sagamihanpaku) at the 3 - 4 leaf stage were sprayed with an aqueous suspension of the test compound at a concentration of 300 ppm (30 ml/3 pots). The seedlings were then kept for 24 hours at room temperature, after which they were inoculated with conidida of Sphaerotheca fuliginea. After keeping the seedlings in a greenhouse for 7 days, the disease controlling index was evaluated on the basis of the diseased area on the third and fourth leaves.

Rhizoctonia solani [3] = test: Curative activity against sheath blight of rice plants (Experiment 3); parameters: key: 0 = disease as untreated, 5 = no disease (complete control); details: rice seedlings (variety Nihonbare), sprayed 24 hours after inoculation at 10 ppm (30 ml/3 pots), further 5 days; height of the lesions
Description: Rice seedlings (variety Nihonbare) at the 4 - 5 leaf stage were inoculated with the fungus, Rhizoctonia solani, by placing 4 - 5 oat grains on which the fungus had previously been cultured around the base of each rice seedling and keeping them in a moist chamber at 25 - 27 °C. After 24 hours, the rice seedlings were sprayed with an aqueous suspension of the test compound at a concentration of 10 ppm (30 ml/3 pots) and they then continued to be kept in the moist chamber for a further 5 days. The disease controlling index was given on the basis of the height of the lesions formed on the rice seedlings.
as §2, §1

Venturia inaequalis = test: Preventive activity against apple scab (Experiment 9); details: apple seedlings sprayed at 300 ppm, inoculated after 24 hours, 3 days moist chamber then 10 days greenhouse; diseased area on third and fourth leaves
Description: Apple seedlings at the 3 - 4 leaf stage were sprayed with an aqueous suspension of the test compound at a concentration of 300 ppm (30 ml/3 pots). The seedlings were then kept for 24 hours at room temperature, after which they were inoculated with the fungus, Venturia inaequalis, by spraying a spore suspension of the fungus over the seedlings. After inoculation, the seedlings were kept in a moist chamber for 3 days at 20 - 22 °C and then moved to a greenhouse at 20 - 22°C for 10 days. The disease controlling index was given on the basis of the diseased area on the third and fourth leaves.

Rhizoctonia solani [4] = test: Preventive activity against sheath blight of rice plants by submerged application (Experiment 4); details: rice seedlings (variety Nihonbare), applied to the water in the pots, 100 g per 10 ares, inoculated after 7 days, 5 days; height of the lesions
Source text: Rice seedlings (variety Nihonbare) at the 4 - 5 leaf stage grown in pots were flooded to a depth of 1 cm with water. The test compound was then applied to the water in the pots in an amount corresponding to 100 g per 10 ares. After keeping the seedlings in a greenhouse for 7 days, the water was drained from the pots and the seedlings were inoculated with the fungus, Rhizoctonia solani, by placing 4 - 5 oat grains on which the fungus had previously been cultured around the base of each seedling. The seedlings were then kept in a moist chamber for 5 days at 25 - 27 °C. The disease controlling index was given on the basis of the height of the lesions formed on the rice seedlings.
Except for Table 14F, the compounds tested have the formula (1-1), in which Ar represents the group shown at the beginning of each part of the Table and R^1, R^2, X and Y are as defined in the Table.
as §1

Structure (SMILES)	disease controlling index (Puccinia recondita)	disease controlling index (Pyricularia oryzae)	disease controlling index (Rhizoctonia solani [1])	disease controlling index (Gibberella Fujikuroi)	disease controlling index [2]	ED50 (Candida albicans) [mg/kg]	Index (disease controlling index) (Sphaerotheca fuliginea)	disease controlling index (Rhizoctonia solani [3])	Index (disease controlling index) (Venturia inaequalis)	disease controlling index (Rhizoctonia solani [4])
C[C@@H](NC(=O)c1ccc(C(F)(F)F)cc1F)[C@](O)(Cn1cncn1)c1ccc(F)cc1F [Example 65]	5	5	5	4 (disease rate is less than 10% of the untreated plant)	5	< 0.625	5	5		
C[C@@H](NC(=O)c1ccc(C(F)(F)F)cc1)[C@](O)(Cn1cncn1)c1ccc(Cl)cc1 [Example 103, (2R, 3R)-2-(4-Chlorophenyl)-1-(1H-1,2,4-triazol-1-yl)-3-[(4-trifluoromethyl)benzoylamino]-2-butanol]						0.48				
CC(N=[N+]=[N-])[C@H](C)[C@](O)(Cn1cncn1)c1ccc(F)cc1F (single isomer, unassigned) [83 (oxalate, C-4 isomer 2), (2R*, 3S*)-4-Azido-2-(2,4-difluorophenyl)-3-methyl-1-(1H-1,2,4-triazol-1-yl)-2-pentanol]	5	5	5	5	5		5	5	5	4 (disease rate is less than 10% of the untreated plant)
C[C@@H](NC(=O)c1ccc(C#N)cc1)[C@](O)(Cn1cncn1)c1ccc(F)cc1F [Example 67]	4 (disease rate is less than 10% of the untreated plant)		4 (disease rate is less than 10% of the untreated plant)		4 (disease rate is less than 10% of the untreated plant)	1.25	5	4 (disease rate is less than 10% of the untreated plant)		
CC(=O)N1CCN(c2ccc(OCC3COC(Cn4ccnc4)(c4ccc(Cl)cc4Cl)O3)cc2)CC1 (stereo not drawn) [ketoconazole, reference compound]						31.4				
C[C@@H](N=[N+]=[N-])[C@](O)(Cn1cncn1)c1ccc(F)cc1F [Example 99, (2R, 3R)-3-Azido-2-(2,4-difluorophenyl)-1-(1H-1,2,4-triazol-1-yl)-2-butanol]		5		5			5	5	5	4 (disease rate is less than 10% of the untreated plant)
C[C@@H](CCN=[N+]=[N-])[C@](O)(Cn1cncn1)c1ccc(F)cc1F (relative stereo) [Example 81, (2R*, 3S*)-5-Azido-2-(2,4-difluorophenyl)-3-methyl-1-(1H-1,2,4-triazol-1-yl)-2-pentanol]	5	5	5	5				5		4 (disease rate is less than 10% of the untreated plant)
C[C@@H](N=[N+]=[N-])[C@](O)(Cn1cncn1)c1ccc(Cl)cc1Cl (relative stereo) [Example 2, (2R*, 3R*)-3-Azido-2-(2,4-dichlorophenyl)-l-(lH-1,2,4-triazol-1-yl)-2-butanol]	5	4 (disease rate is less than 10% of the untreated plant)					5	5	5	5
C[C@@H](NC(=O)c1ccc(C(F)(F)F)cc1)[C@](O)(Cn1cncn1)c1ccc(F)cc1F (relative stereo) [Example 17, (2R*, 3R*)-2-(2,4-0ifluorophenyl)-1-(1H-1,2,4-triazol-1-yl)-3-(4-trifluoromethylbenzoylamino)-2-butanol]	5	5	4 (disease rate is less than 10% of the untreated plant)	4 (disease rate is less than 10% of the untreated plant)	5	0.86	4 (disease rate is less than 10% of the untreated plant)	4 (disease rate is less than 10% of the untreated plant)		
CC(N=[N+]=[N-])[C@H](C)[C@](O)(Cn1cncn1)c1ccc(F)cc1F (single isomer, unassigned) [83 (C-4 isomer 1), (2R*, 3S*)-4-Azido-2-(2,4-difluorophenyl)-3-methyl-1-(1H-1,2,4-triazol-1-yl)-2-pentanol]	5	5	5	5	5		5	5	5	5
